Assay results taken from patent publication US7468392B1, “Anti-fatigue cyclohexenone compounds from antrodia camphorata” (Golden Biotechnology Corporation, priority 2007, dated 2008).
“Also recorded” adds a separate entry of the source.

What was measured:
Format in all cases: in vivo, human
healthy male volunteers [1] = test: Creatine phosphate kinase (CPK) activity in plasma before/after exhaustive exercise at 80% VO2max; settings: for creatine phosphate kinase levels: plasma, Mean, n = 15
Experimental: (§1) The present invention is based on supplementing cyclohexenone of Antrodia camphorata or placebo with no cyclohexenone of Antrodia camphorata to the subjects. The subjects were tested for the anti-fatigue function after supplementing cyclohexenone of Antrodia camphorata by measuring the amounts of fatigue indexes such as CPK, lactic acid, glucose, ammonia and free fatty acid before and after exhaustive exercise load at 80% VO2max.
(§2) Subjects were randomized to receive either cyclohexenone of Antrodia camphorata or placebo. Placebo contained substances such as cornstarch but no cyclohexenone of Antrodia camphorata. A double-blind, cross-over method was performed in this study where neither the evaluator nor the subject knew the content of the test substances. Based on rules of order balance, each subject have to receive the following tests: relaxing and receiving placebo (PR), exercising and receiving placebo (PE), relaxing and receiving cyclohexenone of Antrodia camphorata (DR), and exercising and receiving cyclohexenone of Antrodia camphorata (DE). Each test was carried out for one week, and took one week off before the next test until all 4 tests were performed in each subject. The exercise was performed on a treadmill with the load intensity at the measured 80% VO2max (7.61±1.87) until exhausted. Subjects received cyclohexenone of Antrodia camphorata or placebo after exercise in the amount of 0.2 g/kg body weight per day. […] Blood was collected in anticoagulant (such as EDTA) containing collection tubes, and was centrifuged at 3000 g. for 10 min to collect the plasma. The fatigue indexes such as CPK, lactic acid, glucose, ammonia and free fatty acid were analyzed accordingly. The physiological and biochemical changes before and after exercise with different supplements were compared and shown as values of mean and standard error (Mean±SEM). […] The details for the biochemical analysis and results are described below:
The measurement of creatine phosphate kinase was performed with an automated blood analyzer Johnson & Johnson DT-60II based on enzyme function and spectrophotometric theory. Creatine phosphate […] was added into a defined amount of plasma to react, followed by addition of 4-aminoantipyrine and 1,7-dihydroxynaphthalene. A […] product was formed through peroxidase function. The absorbance at 680 nm was measured to obtain the concentration of creatine kinase.

healthy male volunteers [2] = test: Blood glucose before meals, before/after exhaustive exercise at 80% VO2max; settings: for blood glucose levels: plasma, Mean, n = 15; for effect of supplementation on blood glucose metabolism before meals: exhaustive exercise at 80% VO2max, versus placebo
Experimental: as §1, §2
The measurement of blood glucose was performed with an automated blood analyzer Johnson & Johnson DT-600 II based on enzyme function and spectrophotometric method. Glucose oxidase was added into a defined amount of plasma for reaction, followed by addition of 4-aminoantipyrine and 1,7-dihydroxyphthalene. A red product was formed through function of peroxidase. The reactions are shown below:
The absorbance at 555 nm was measured to obtain the concentration of blood glucose.

healthy male volunteers [3] = test: Ammonia levels in blood before/after exhaustive exercise at 80% VO2max; settings: for blood ammonia levels: plasma, Mean, n = 15
Experimental: as §1, §2
The measurement of blood ammonia was performed with an automated blood analyzer Johnson & Johnson DT-60II based on the spectrophotometric method. Bromphenol blue was added into a defined amount of plasma to generate blue products. The reaction is shown below:
The absorbance at 605 nm was measured to obtain the concentration of blood ammonia.

[4] = Relax (DR), Post-exercise 0.5 h
[5] = Relax (DR), Post-exercise 120 h
[6] = Relax (DR), Post-exercise 168 h
[7] = exercise (DE), Post-exercise 0 h
[8] = exercise (DE), Post-exercise 0.5 h
[9] = exercise (DE), Post-exercise 1 h
[10] = exercise (DE), Post-exercise 2 h
[11] = exercise (DE), Post-exercise 24 h
[12] = exercise (DE), Post-exercise 48 h
[13] = exercise (DE), Post-exercise 72 h
[14] = exercise (DE), Post-exercise 120 h
[15] = exercise (DE), Post-exercise 168 h
[16] = exercise (DE), Prior to exercise

`COC1=C(OC)C(O)C(C/C=C(\C)CC/C=C(\C)CCC=C(C)C)C(C)C1=O` (centres unmarked) [cyclohexenone, 4-hydroxy-2,3-dimethoxy-6-methyl-5(3,7,11-trimethyl-dodeca-2,6,10-trienyl)-cyclohex-2-enone] was tested, and the “creatine phosphate kinase levels” value (healthy male volunteers [1]; Relax (DR), Post-exercise 0 h) was 150.20 U/L, the “creatine phosphate kinase levels” value (healthy male volunteers [1]; [4]) was 166.53 U/L and the “creatine phosphate kinase levels” value (healthy male volunteers [1]; Relax (DR), Post-exercise 1 h) was 167.40 U/L. The “creatine phosphate kinase levels” value (healthy male volunteers [1]; Relax (DR), Post-exercise 2 h) was 146.33 U/L, the “creatine phosphate kinase levels” value (healthy male volunteers [1]; Relax (DR), Post-exercise 24 h) was 158.47 U/L and the “creatine phosphate kinase levels” value (healthy male volunteers [1]; Relax (DR), Post-exercise 48 h) was 133.87 U/L. For the same compound, the “creatine phosphate kinase levels” value (healthy male volunteers [1]; Relax (DR), Post-exercise 72 h) was 165.73 U/L, the “creatine phosphate kinase levels” value (healthy male volunteers [1]; [5]) was 243.00 U/L and the “creatine phosphate kinase levels” value (healthy male volunteers [1]; [6]) was 183.27 U/L. The “creatine phosphate kinase levels” value (healthy male volunteers [1]; Relax (DR), Prior to exercise) was 167.27 U/L, the “creatine phosphate kinase levels” value (healthy male volunteers [1]; [7]) was 259.57 U/L and the “creatine phosphate kinase levels” value (healthy male volunteers [1]; [8]) was 221.86 U/L. The “creatine phosphate kinase levels” value (healthy male volunteers [1]; [9]) was 232.93 U/L, the “creatine phosphate kinase levels” value (healthy male volunteers [1]; [10]) was 208.07 U/L and the “creatine phosphate kinase levels” value (healthy male volunteers [1]; [11]) was 332.50 U/L. The “creatine phosphate kinase levels” value (healthy male volunteers [1]; [12]) was 244.00 U/L, the “creatine phosphate kinase levels” value (healthy male volunteers [1]; [13]) was 193.86 U/L and the “creatine phosphate kinase levels” value (healthy male volunteers [1]; [14]) was 193.86 U/L. For the same compound, the “creatine phosphate kinase levels” value (healthy male volunteers [1]; [15]) was 204.83 U/L, the “creatine phosphate kinase levels” value (healthy male volunteers [1]; [16]) was 226.64 U/L and the “effect of supplementation after exercise on creatine phosphate kinase levels” value (healthy male volunteers [1]; exhaustive exercise at 80% VO2max, 0.2 g/kg body weight per day, versus placebo, listed as cyclohexenone from Antrodia camphorata) was “effectively decreases the muscular injury marker of creatine phosphate kinase levels; also recorded: significant effect (p<0.05) in metabolism of creatine phosphate kinase”. For the same compound, the blood glucose levels (healthy male volunteers [2]; Relax (DR), Post-exercise 0 h) was 91.93 mg/dL, the blood glucose levels (healthy male volunteers [2]; [4]) was 93.33 mg/dL and the blood glucose levels (healthy male volunteers [2]; Relax (DR), Post-exercise 1 h) was 95.53 mg/dL. It also gave a blood glucose levels (healthy male volunteers [2]; Relax (DR), Post-exercise 2 h) of 103.20 mg/dL, a blood glucose levels (healthy male volunteers [2]; Relax (DR), Post-exercise 24 h) of 90.00 mg/dL and a blood glucose levels (healthy male volunteers [2]; Relax (DR), Post-exercise 48 h) of 90.40 mg/dL. For the same compound, the blood glucose levels (healthy male volunteers [2]; Relax (DR), Post-exercise 72 h) was 93.40 mg/dL, the blood glucose levels (healthy male volunteers [2]; [5]) was 94.00 mg/dL and the blood glucose levels (healthy male volunteers [2]; [6]) was 92.20 mg/dL. It also gave a blood glucose levels (healthy male volunteers [2]; Relax (DR), Prior to exercise) of 91.73 mg/dL, a blood glucose levels (healthy male volunteers [2]; [7]) of 103.43 mg/dL and a blood glucose levels (healthy male volunteers [2]; [8]) of 88.71 mg/dL. It also gave a blood glucose levels (healthy male volunteers [2]; [9]) of 93.86 mg/dL, a blood glucose levels (healthy male volunteers [2]; [10]) of 101.07 mg/dL and a blood glucose levels (healthy male volunteers [2]; [11]) of 94.43 mg/dL. The blood glucose levels (healthy male volunteers [2]; [12]) was 89.21 mg/dL, the blood glucose levels (healthy male volunteers [2]; [13]) was 93.00 mg/dL and the blood glucose levels (healthy male volunteers [2]; [14]) was 93.29 mg/dL. The blood glucose levels (healthy male volunteers [2]; [15]) was 92.93 mg/dL, the blood glucose levels (healthy male volunteers [2]; [16]) was 89.21 mg/dL and the “effect of supplementation on blood glucose metabolism before meals” value (healthy male volunteers [2]; listed as cyclohexenone from Antrodia camphorata) was “no effect”. For the same compound, the “effect of supplementation on blood glucose metabolism before meals” value (healthy male volunteers [2]; listed as cyclohexenone of Antrodia camphorata) was “no significant difference”, the “ammonia levels in DE group versus those before exercise” value (healthy male volunteers [3]; 24 h post exercise) was “significantly lower” and the blood ammonia levels (healthy male volunteers [3]; Relax (DR), Post-exercise 0 h) was 55.60 µg/dL. It also gave a blood ammonia levels (healthy male volunteers [3]; [4]) of 52.53 µg/dL, a blood ammonia levels (healthy male volunteers [3]; Relax (DR), Post-exercise 1 h) of 57.47 µg/dL and a blood ammonia levels (healthy male volunteers [3]; Relax (DR), Post-exercise 2 h) of 54.07 µg/dL. It also gave a blood ammonia levels (healthy male volunteers [3]; Relax (DR), Post-exercise 24 h) of 30.33 µg/dL, a blood ammonia levels (healthy male volunteers [3]; Relax (DR), Post-exercise 48 h) of 26.86 µg/dL and a blood ammonia levels (healthy male volunteers [3]; Relax (DR), Post-exercise 72 h) of 25.20 µg/dL. The blood ammonia levels (healthy male volunteers [3]; [5]) was 27.80 µg/dL, the blood ammonia levels (healthy male volunteers [3]; [6]) was 28.57 µg/dL and the blood ammonia levels (healthy male volunteers [3]; Relax (DR), Prior to exercise) was 39.20 µg/dL. For the same compound, the blood ammonia levels (healthy male volunteers [3]; [7]) was 118.07 µg/dL and the blood ammonia levels (healthy male volunteers [3]; [8]) was 57.64 µg/dL.
